{"source": "patent US20170238571A1", "about": "“A SYNERGISTIC COMPOSITION COMPRISING A MIXTURE OF BACTERIA OF THE GENERA LACTOBACILLUS AND PROPIONOBACTERIUM PARTICULARLY USEFUL TO REDUCE OR ELIMINATE PATHOGEN CONTAMINATION IN SOYBEN MEAL AND ITS DERIVATIVES; METHODS AND USES THEREOF” (Molinos Río de la Plata S.A., priority 2014, published 2017)", "key": {"[1]": {"test_system": "Salmonella (S. typhimurium, S. enteritidis, S. heidelberg)", "assay": "Salmonella elimination in contaminated soybean meal: independent ferments vs. mixes (synergistic effect)", "type": "cell-based", "conditions": "25° C. - 12% DBM; for Average (n = 3): Salmonella count; for LOG10 (CFU/g) / Reduction %: Salmonella", "experimental": "In order to assess the effectiveness of the mix of the invention in the matrix of interest, an appropriate working protocol was prepared. Initially, 500 g of soybean meal were infected with 50 mL of Salmonella solution whose composition was: 10^6 CFUS. typhimurium/mL, 10^6 CFUS. enteritidis /mLand 10^6 CFUS. heidelberg /mL in equal amounts. […] 50 g of the wet meal obtained (≈25% moisture content on dry basis) were mixed within the dry meal (≈10% moisture content dry basis) and were stirred for 10 minutes. […] Daily determinations of Salmonella colony forming units were performed on this contaminated meal. To this end, 40.5 g of BPW to 4.5 g of the resulting meal were added and vigorously stirred, and then 100μL of this solution, were plated onto Salmonella-Shigella agar (SS Agar). When microorganisms were used in the protecting mixes, concentrations were carefully balanced, and the amount of bacteria added was always the same.\nIn the cases in which solutions with ferments were used for protection purposes, cell concentration was of about 10^8 CFU/mL.\nUsing the protocol described above, the effects caused by the individual strains were assessed and then compared with the effect obtained after mixing them together. […] In order to come closer to the actual values, whenever a ND value was obtained using the methodology described above, a new dilution factor was applied; each time by adding only 18 g of buffer (stirring thoroughly and then spinning), and 200 μL of this solution were plated for recounting. […] This new protocol was only used to determine the effect of the different mixes. In turn, the results obtained herein are shown using the following formula: […]\nThus, the percentage of Salmonella elimination in meal was calculated for different mixes, as well as for each ferment individually."}, "Salmonella": {"test_system": "Salmonella", "assay": "Residual effect: contamination and recontamination with Salmonella after treatment of soybean meal", "type": "cell-based", "conditions": "25° C. - 12% DBM; for Average (n = 3): Salmonella count; for LOG10 (CFU/g): Salmonella", "experimental": "In order to assess the effectiveness of the mix of the invention in the matrix of interest, an appropriate working protocol was prepared. Initially, 500 g of soybean meal were infected with 50 mL of Salmonella solution whose composition was: 10^6 CFUS. typhimurium/mL, 10^6 CFUS. enteritidis /mLand 10^6 CFUS. heidelberg /mL in equal amounts. […] Daily determinations of Salmonella colony forming units were performed on this contaminated meal. To this end, 40.5 g of BPW to 4.5 g of the resulting meal were added and vigorously stirred, and then 100μL of this solution, were plated onto Salmonella-Shigella agar (SS Agar). When microorganisms were used in the protecting mixes, concentrations were carefully balanced, and the amount of bacteria added was always the same.\nFor this reason it was decided to study the response of meals protected with different solutions, by contaminating them at different times after protection. Given the complexity of the logistics of meal products, they were tested at two different times: initial contamination and recontamination on the first week after treatment; and, contamination on the fourth week with subsequent recontamination on the fifth week after treatment. In all cases, itl was contaminated and recontaminated with Salmonella solutions whose concentration was approximately 10^6 CFU/mL (as previously described)."}, "[2]": {"conditions": "0 days, first series (0-6 days)"}, "[3]": {"conditions": "0 days, second series (0-3 days)"}, "[4]": {"conditions": "1 day, second series (0-3 days)"}, "[5]": {"conditions": "2 days, first series (0-6 days)"}, "[6]": {"conditions": "2 days, second series (0-3 days)"}, "[7]": {"conditions": "3 days, first series (0-6 days)"}, "[8]": {"conditions": "3 days, second series (0-3 days)"}, "[9]": {"conditions": "4 days, first series (0-6 days)"}, "[10]": {"conditions": "5 days, first series (0-6 days)"}, "[11]": {"conditions": "6 days, first series (0-6 days)"}, "[12]": {"conditions": "day 8, after RECONTAMINATION (first week)"}, "[13]": {"conditions": "day 9, after RECONTAMINATION (first week)"}, "[14]": {"conditions": "day 11, after RECONTAMINATION (first week)"}, "[15]": {"conditions": "day 12, after RECONTAMINATION (first week)"}, "[16]": {"conditions": "day 13, after RECONTAMINATION (first week)"}, "[17]": {"conditions": "day 14, after RECONTAMINATION (first week)"}, "[18]": {"conditions": "day 15, after RECONTAMINATION (first week)"}, "[19]": {"conditions": "day 37, contamination on the fourth week after treatment"}, "[20]": {"conditions": "day 38, after RECONTAMINATION (fifth week)"}, "[21]": {"conditions": "day 39, after RECONTAMINATION (fifth week)"}, "[22]": {"conditions": "day 41, after RECONTAMINATION (fifth week)"}, "[23]": {"conditions": "day 42, after RECONTAMINATION (fifth week)"}, "[24]": {"conditions": "day 44, after RECONTAMINATION (fifth week)"}}}
{"compound": "CCC(=O)O", "note": "[Propionic Acid]", "values": [{"measurement": "Average (n = 3)", "setting": "[1]; [2]", "value": 199.67}, {"measurement": "Average (n = 3)", "setting": "[1]; [3]", "value": 199.67}, {"measurement": "Average (n = 3)", "setting": "[1]; 1 day, first series (0-6 days)", "value": 145}, {"measurement": "Average (n = 3)", "setting": "[1]; [4]", "value": 145}, {"measurement": "Average (n = 3)", "setting": "[1]; [5]", "value": 110}, {"measurement": "Average (n = 3)", "setting": "[1]; [6]", "value": 110}, {"measurement": "Average (n = 3)", "setting": "[1]; [7]", "value": 90}, {"measurement": "Average (n = 3)", "setting": "[1]; [8]", "value": 90}, {"measurement": "Average (n = 3)", "setting": "[1]; [9]", "value": 60.67}, {"measurement": "Average (n = 3)", "setting": "[1]; [10]", "value": 57}, {"measurement": "Average (n = 3)", "setting": "[1]; [11]", "value": 38.33}, {"measurement": "LOG10 (CFU/g)", "setting": "[1]; [2]", "value": "3.65 LOG10 (CFU/g)"}, {"measurement": "Reduction %", "setting": "[1]; [2]", "value": 0.00, "unit": "%"}, {"measurement": "LOG10 (CFU/g)", "setting": "[1]; [3]", "value": "3.65 LOG10 (CFU/g)"}, {"measurement": "Reduction %", "setting": "[1]; [3]", "value": 0.00, "unit": "%"}, {"measurement": "LOG10 (CFU/g)", "setting": "[1]; 1 day, first series (0-6 days)", "value": "3.51 LOG10 (CFU/g)"}, {"measurement": "Reduction %", "setting": "[1]; 1 day, first series (0-6 days)", "value": 3.81, "unit": "%"}, {"measurement": "LOG10 (CFU/g)", "setting": "[1]; [4]", "value": "3.51 LOG10 (CFU/g)"}, {"measurement": "Reduction %", "setting": "[1]; [4]", "value": 3.81, "unit": "%"}, {"measurement": "LOG10 (CFU/g)", "setting": "[1]; [5]", "value": "3.39 LOG10 (CFU/g)"}, {"measurement": "Reduction %", "setting": "[1]; [5]", "value": 7.10, "unit": "%"}, {"measurement": "LOG10 (CFU/g)", "setting": "[1]; [6]", "value": "3.39 LOG10 (CFU/g)"}, {"measurement": "Reduction %", "setting": "[1]; [6]", "value": 7.10, "unit": "%"}, {"measurement": "LOG10 (CFU/g)", "setting": "[1]; [7]", "value": "3.30 LOG10 (CFU/g)"}, {"measurement": "Reduction %", "setting": "[1]; [7]", "value": 9.49, "unit": "%"}, {"measurement": "LOG10 (CFU/g)", "setting": "[1]; [8]", "value": "3.30 LOG10 (CFU/g)"}, {"measurement": "Reduction %", "setting": "[1]; [8]", "value": 9.49, "unit": "%"}, {"measurement": "LOG10 (CFU/g)", "setting": "[1]; [9]", "value": "3.13 LOG10 (CFU/g)"}, {"measurement": "Reduction %", "setting": "[1]; [9]", "value": 14.22, "unit": "%"}, {"measurement": "LOG10 (CFU/g)", "setting": "[1]; [10]", "value": "3.10 LOG10 (CFU/g)"}, {"measurement": "Reduction %", "setting": "[1]; [10]", "value": 14.93, "unit": "%"}, {"measurement": "LOG10 (CFU/g)", "setting": "[1]; [11]", "value": "2.93 LOG10 (CFU/g)"}, {"measurement": "Reduction %", "setting": "[1]; [11]", "value": 19.76, "unit": "%"}, {"measurement": "Average (n = 3)", "setting": "Salmonella; day 2, initial contamination", "value": 130}, {"measurement": "Average (n = 3)", "setting": "Salmonella; day 3, initial contamination", "value": 100.3}, {"measurement": "Average (n = 3)", "setting": "Salmonella; day 4, initial contamination", "value": 90.5}, {"measurement": "Average (n = 3)", "setting": "Salmonella; day 5, initial contamination", "value": 77}, {"measurement": "Average (n = 3)", "setting": "Salmonella; day 6, initial contamination", "value": 58}, {"measurement": "Average (n = 3)", "setting": "Salmonella; day 7, initial contamination", "value": 32}, {"measurement": "Average (n = 3)", "setting": "Salmonella; [12]", "value": 215}, {"measurement": "Average (n = 3)", "setting": "Salmonella; [13]", "value": 189.33}, {"measurement": "Average (n = 3)", "setting": "Salmonella; day 10, after RECONTAMINATION (first week)", "value": 144.33}, {"measurement": "Average (n = 3)", "setting": "Salmonella; [14]", "value": 109}, {"measurement": "Average (n = 3)", "setting": "Salmonella; [15]", "value": 96.67}, {"measurement": "Average (n = 3)", "setting": "Salmonella; [16]", "value": 70.67}, {"measurement": "Average (n = 3)", "setting": "Salmonella; [17]", "value": 48.67}, {"measurement": "Average (n = 3)", "setting": "Salmonella; [18]", "value": 40}, {"measurement": "Average (n = 3)", "setting": "Salmonella; day 32, contamination on the fourth week after treatment", "value": 130}, {"measurement": "Average (n = 3)", "setting": "Salmonella; day 33, contamination on the fourth week after treatment", "value": 120.3}, {"measurement": "Average (n = 3)", "setting": "Salmonella; day 34, contamination on the fourth week after treatment", "value": 90.5}, {"measurement": "Average (n = 3)", "setting": "Salmonella; day 35, contamination on the fourth week after treatment", "value": 77}, {"measurement": "Average (n = 3)", "setting": "Salmonella; day 36, contamination on the fourth week after treatment", "value": 58}, {"measurement": "Average (n = 3)", "setting": "Salmonella; [19]", "value": 39}, {"measurement": "Average (n = 3)", "setting": "Salmonella; [20]", "value": 247}, {"measurement": "Average (n = 3)", "setting": "Salmonella; [21]", "value": 189}, {"measurement": "Average (n = 3)", "setting": "Salmonella; day 40, after RECONTAMINATION (fifth week)", "value": 174.34}, {"measurement": "Average (n = 3)", "setting": "Salmonella; [22]", "value": 156.34}, {"measurement": "Average (n = 3)", "setting": "Salmonella; [23]", "value": 136.34}, {"measurement": "Average (n = 3)", "setting": "Salmonella; day 43, after RECONTAMINATION (fifth week)", "value": 111.67}, {"measurement": "Average (n = 3)", "setting": "Salmonella; [24]", "value": 88.34}, {"measurement": "Average (n = 3)", "setting": "Salmonella; day 45, after RECONTAMINATION (fifth week)", "value": 77}, {"measurement": "LOG10 (CFU/g)", "setting": "Salmonella; [12]", "value": "3.68 LOG10 (CFU/g)"}, {"measurement": "LOG10 (CFU/g)", "setting": "Salmonella; [13]", "value": "3.62 LOG10 (CFU/g)"}, {"measurement": "LOG10 (CFU/g)", "setting": "Salmonella; [14]", "value": "3.38 LOG10 (CFU/g)"}, {"measurement": "LOG10 (CFU/g)", "setting": "Salmonella; [15]", "value": "3.33 LOG10 (CFU/g)"}, {"measurement": "LOG10 (CFU/g)", "setting": "Salmonella; [16]", "value": "3.20 LOG10 (CFU/g)"}, {"measurement": "LOG10 (CFU/g)", "setting": "Salmonella; [17]", "value": "3.03 LOG10 (CFU/g)"}, {"measurement": "LOG10 (CFU/g)", "setting": "Salmonella; [18]", "value": "2.95 LOG10 (CFU/g)"}, {"measurement": "LOG10 (CFU/g)", "setting": "Salmonella; [19]", "value": "2.94 LOG10 (CFU/g)"}, {"measurement": "LOG10 (CFU/g)", "setting": "Salmonella; [20]", "value": "3.74 LOG10 (CFU/g)"}, {"measurement": "LOG10 (CFU/g)", "setting": "Salmonella; [21]", "value": "3.62 LOG10 (CFU/g)"}, {"measurement": "LOG10 (CFU/g)", "setting": "Salmonella; [22]", "value": "3.54 LOG10 (CFU/g)"}, {"measurement": "LOG10 (CFU/g)", "setting": "Salmonella; [23]", "value": "3.48 LOG10 (CFU/g)"}, {"measurement": "LOG10 (CFU/g)", "setting": "Salmonella; [24]", "value": "3.29 LOG10 (CFU/g)"}]}
